Where two headings read alike, the source gives them in different places. Marks after values point to notes of the source that are not given here.
Key:
[1] = test system: T. cruzi trypomastigotes (Y strain); experiment: Cytotoxicity for trypomastigotes (viable parasite count, Neubauer chamber); format: cell-based, Trypanosoma cruzi; conditions: for activity at the screening threshold (in words): threshold 10 μΜ
Description: The trypanocidal activity of the 69 indirubins was initially evaluated against trypomastigotes (Y strain T. cruzi) through the determination of EC50 values. First, the collection of 69 indirubins (Table S1) was screened against the trypomastigote form of T. cruzi parasites at 10 μΜ and 1 μΜ.
The T. cruzi Y strain (DTU II) was used in this study. […] For in vivo analysis, bloodstream trypomastigotes used were obtained from BALB/c mice previously infected intraperitoneally with 10,000 Y trypomastigotes, and then bled after 8–12 days when they reached the peak of parasitaemia.
Trypomastigotes (4x10^5 cells/well) were seeded into 96-well plates and the indirubins were added at eight concentrations ranging from 0.08 to 10 µM, in triplicate. Plates were incubated for 24 h at 37 °C and 5% of CO2. Aliquots of each well were collected and the number of viable parasites, based on parasite integrity and motility, was assessed in a Neubauer chamber and compared to untreated cultures. Three independent experiments were performed.
(§1) The selectivity index (SI) was defined as the ratio of CC50 by EC50 (trypomastigotes). The one-way ANOVA followed by Bonferroni’s multiple comparison test was used to determine the statistical significance of the group comparisons in the in vitro infection and in vivo studies. Results were considered statistically significant when P < 0.05. All analyzes were performed using Graph Pad Prism version 5.01

[2] = test system: Y Trypanosoma cruzi strain; experiment: Infection in mice (acute Chagas disease model); format: in vivo, BALB/c mice; conditions: for % Blood parasitemia reduction in mice at 12 dpi: daily for 5 days from day 5 of infection, versus vehicle group; for Mortality: dead/total, monitored for 30 days after treatment
Procedure: Female BALB/c mice (18–22 g) were infected with bloodstream trypomastigotes by intraperitoneal inoculation of 10^4 parasites in 100 µL of saline solution and then mice were randomly divided in groups (six animals per group). Before starting the treatment on the fifth day post infection, the infection was confirmed in all animals where on average 0.4 × 10^6 parasites per ml of blood were found. Thus, after day 5 of infection, treatment with 20 mg/kg weight of indirubins 10, 11, 17 and 32 were given orally for five consecutive days. For the control group, benznidazole was given orally at dose of 100 mg/kg weight. Saline containing 20% DMSO was used as a vehicle and administrated on untreated and infected group. Infection was monitored daily by counting the number of motile parasites in 5 µL of fresh blood sample drawn from the lateral tail veins, as recommended by standard protocol. Survival of mice was monitored for 30 days after treatment.

[3] = test system: T. cruzi intracellular amastigotes; experiment: In vitro infection assay (infected peritoneal macrophages); format: cell-based, Trypanosoma cruzi; conditions: amastigotes in infected macrophages treated for 6 h, mean ± SD
Procedure: Peritoneal exudate macrophages were obtained by washing, with cold PBS, the peritoneal cavity of BALB/c mice 4–5 days after injection of 3% thioglycolate (Sigma-Aldrich) in saline (1.5 mL per mice). Then, cells were plated at a cell density of 2 × 10^5 cells/well in 24-well plates with sterile coverslips on the bottom in RPMI supplemented with 10% FBS and incubated for 24 h at 37° C and 5% CO2. Cells were then infected with trypomastigotes at a ratio of 10 parasites per macrophage for 2 h. Free trypomastigotes were removed by successive washes using saline solution. Cultures were incubated in complete medium alone or with the compounds under investigation in different concentrations for 6 h. The medium was replaced with fresh medium and the plate was incubated for 3 days. Cells were fixed in absolute alcohol and the percentage of infected macrophages and the mean number of amastigotes/100 macrophages was determined by manual counting after hematoxylin and eosin staining in an optical microscope (Olympus). The percentage of infected macrophages and the relative number of amastigotes per macrophage was determined by counting 100 cells per slide.
as §1

[4] = Cytotoxicity to mammalian cells (Alamar Blue); format: cell-based, mouse; conditions: mouse, J774.1 macrophage cells; J774.1 cell viability, 72 h post-treatment
Procedure: (§2) Mouse macrophages (J774.1 cell line) were seeded into 96-well plates at a cell number 1 × 10^4 cells/well in DMEM medium supplemented with 10 % of FBS and incubated for 24 h at 37°C and 5% CO2. Samples were then added at eight concentrations (ranging from 0.078 to 10 µM) in triplicate, and incubated for 72 h, followed by the addition of 20 µL/well of Alamar Blue (Invitrogen; Catalog number: DAL1025). Colorimetric readings were performed 24 h later at 570 and 600 nm. CC50 values were calculated using data-points gathered from three independent experiments. Benznidazole was tested in concentrations ranging from 0.78 to 100 µM.
as §1

[5] = In vivo toxicity: mortality, behaviour, serum and urine renal and hepatic markers; conditions: mice, 10 or 20 mg/Kg for 5 consecutive days, up to 3 months post treatment
Procedure: (§3) Thus, the highest dose was selected (20 mg/kg) and administrated, as described in material and methods section.
(§4) The analysis was performed in 6 mice per group.

[6] = mouse, in vivo, 20 mg/kg
Procedure: as §3, §4

T. cruzi trypomastigotes = experiment: Ultrastructural studies (TEM and SEM) of treated trypomastigotes; format: cell-based, Trypanosoma cruzi; conditions: 24 h; for morphological alterations by scanning electron microscopy: EC50 and 2 x EC50 concentration; for ultrastructural alterations by transmission electron microscopy: EC50 concentration
Procedure: Parasites were then fixed with 2% formaldehyde and 2.5% glutaraldehyde in sodium cacodylate buffer (0.1 M, pH 7.2) for 1 h at room temperature. After fixation, parasites were washed 3 times with sodium cacodylate buffer (0.1 M, pH 7.2), and post-fixed with a 1.0 % solution of osmium tetroxide containing 0.8% potassium ferrocyanide (Sigma-Aldrich; Catalog number: P3289) for 1 h. Cells were subsequently dehydrated in increasing concentrations of acetone (30, 50, 70, 90 and 100%) for 10 min at each step and embedded in polybed resin (PolyScience; Catalog number: 00552–500). Ultrathin sections on copper grids were contrasted with uranyl acetate and lead citrate and observed under a ZEISS 109 transmission electron microscope. For scanning electron microscopy, trypomastigotes treated and fixed in the same conditions were washed in 0.1 M cacodylate buffer, and allowed to adhere in coverslips pre-coated with poly-L-lysine (Sigma-Aldrich; Catalog number: P4707). Cells were then post-fixed with a solution of osmium tetroxide containing 0.8% of potassium ferrocyanide for 30 min and dehydrated in crescent concentrations of ethanol (30, 50, 70, 90 and 100%). The samples were dried until the critical point, metallized with gold and analyzed in a JEOL JSM-6390LV scanning electron microscope. Two independent experiments were performed.

[7] = test system: murine macrophages J774.1; experiment: Cytotoxicity to mammalian cells (Alamar Blue); format: cell-based, mouse
Procedure: as §2, §1

[8] = Table S1, 69 indirubin analogues, read-out: EC50 in T.cruzi trypomastigotes
[9] = 100 mg/Kg orally, daily for 5 days
[10] = 20 mg/Kg orally, daily for 5 days
[11] = trypomastigotes, 24 h post-treatment, mean ± SD of three experiments, read-out: EC50 Try.

In the case of `CN1C(=O)C(=C2Nc3ccccc3C2=NO)c2ccc(Br)cc21` [Compound 58], the EC50 [1, 8] is reported as > 10 µM.
For `O=C1Nc2ccccc2/C1=C1/Nc2ccccc2C1=O` [Compound 66], the EC50 [1, 8] was > 10 µM.
For `O=C1Nc2cc(Cl)ccc2C1=C1Nc2ccccc2C1=NO` [Compound 64], the EC50 [1, 8] was > 10 µM.
In the case of `O=C1Nc2cc(Br)c([N+](=O)[O-])cc2C1=C1Nc2ccccc2C1=NO` [Compound 51], the EC50 [1, 8] is reported as > 10 µM.
For `CC(=O)ON=C1C(=C2C(=O)N(C)c3cc(Br)ccc32)Nc2ccccc21` [Compound 59], the EC50 [1, 8] was > 10 µM.
In the case of `O=C1Nc2cc(F)ccc2C1=C1Nc2ccccc2C1=NO` [Compound 63], the EC50 [1, 8] is reported as > 10 µM.
In the case of `CON=C1C(=C2C(=O)Nc3ccccc32)Nc2ccccc21` [Compound 67], the EC50 [1, 8] is reported as > 10 µM.
In the case of `O=C(Cn1ccnc1[N+](=O)[O-])NCc1ccccc1` [Benznidazole, reference compound], the survival rate [2, 9] is reported as 100%, the “% Blood parasitemia reduction in mice at 12 dpi” value ([2]; 100 mg/Kg orally) is reported as > 99* % and the “% Blood parasitemia reduction in mice at 12 dpi” value ([2]; 100 mg/Kg orally, listed as benznidazole) is reported as > 99%. For the same compound, the Mortality [2, 9] was 0/6*, the EC50 ([1]; Trypanosoma cruzi, 24 h, trypomastigotes, 24 h post-treatment, mean ± SD of three experiments, read-out: EC50 Try.) was 11.3 µM and the EC50 ([3]; Trypanosoma cruzi, Macrophage) was 13.4 µM. For the same compound, the CC50 at 72 h [4] was > 100 µM.
In the case of `O=C1Nc2c(cccc2C(F)(F)F)C1=C1Nc2ccccc2C1=NO` [Compound 27], the EC50 [1, 8] is reported as > 10 µM.
With `CCOP(=O)(OCC)ON=C1C(=C2C(=O)Nc3cc(Br)ccc32)Nc2ccccc21` [Compound 56] the EC50 [1, 8] was > 10 µM.
For `O=C1Nc2c(cccc2C(F)(F)F)C1=C1Nc2ccccc2C1=O` [Compound 36], the EC50 [1, 8] was > 10 µM.
With `Cc1cc2c(cc1Br)NC(=O)C2=C1Nc2ccccc2C1=O` [Compound 57] the EC50 [1, 8] was > 10 µM.
With `O=C1Nc2ccc(Br)cc2C1=C1Nc2ccccc2C1=NO` [Compound 61] the EC50 [1, 8] was > 10 µM.
In the case of `O=C1Nc2cc(Br)ccc2C1=C1Nc2ccccc2C1=NO` [Compound 6BIO, 3'oxime-6-bromoindirubin], the EC50 [1, 8] is reported as > 10 µM and the “activity at the screening threshold (in words)” value ([1]; trypomastigotes) is reported as “did not exhibit any activity”.
In the case of 3ʹpiperazine-6-BIO [Compound 11], the “signs of toxicity or mortality (in words)” value [5] is reported as “no signs of toxicity”, the “effect on mortality (in words)” value [2, 10] is reported as “protective effect” and the Mortality [2, 10] is reported as 1/6. For the same compound, the EC50 [1, 11] was 0.25 µM, the “Blood Serum Alanine Aminotransferase (ALT)” value [6] was 29±2 U/I and the “Blood Serum Aspartate Aminotransferase (AST)” value [6] was 135.5±10.5 U/I. For the same compound, the “Blood Serum C-Reactive Protein (CRP)” value [6] was <0.02 mg/dL, the “Blood Serum Creatinine” value [6] was 0.385 ± 0.015 mg/dL and the “Urine (24h) Creatinine” value [6] was 63±8. For the same compound, the “Urine (24h) Microalbumin (Urine Albumin)” value [6] was 9 ± 1 mg/L, the “Urine (24h) Urine albumin to creatinine ratio (ACR)” value [6] was 0.142 and the EC50 [3] was 0.22 µM. The “morphological alterations by scanning electron microscopy” value (“morphological alterations” for short) (T. cruzi trypomastigotes) was “extensive loss of plasma membrane integrity”, the “morphological alterations” value (T. cruzi trypomastigotes; listed as compound 11) was “alterations in cell shape and loss of plasma membrane integrity” and the “ultrastructural alterations by transmission electron microscopy” value (from here on “ultrastructural alterations”) (T. cruzi trypomastigotes) was “appearance of myelin figures”. The “ultrastructural alterations” value (T. cruzi trypomastigotes; listed as compound 11) was “DNA degradation with pyknotic nuclei”.
For 3ʹpyrrolidine-6BIO [Compound 17], the “effect on mortality (in words)” value [2, 10] was “protective effect”, the Mortality [2, 10] was 1/6* and the EC50 [1, 11] was 0.44 µM. For the same compound, the EC50 [3] was 0.9 µM, the “cytotoxicity against murine macrophages J774.1 (in words)” value [7] was “lower cytotoxicity” and the CC50 ([7]; J774.1 cell viability, 72 h post-treatment) was 10 µM. The “morphological alterations” value (T. cruzi trypomastigotes) was “extensive loss of plasma membrane integrity”, the “ultrastructural alterations” value (T. cruzi trypomastigotes) was “appearance of myelin figures” and the “ultrastructural alterations” value (T. cruzi trypomastigotes; listed as compound 17) was “DNA degradation with pyknotic nuclei”.
With `O=C1Nc2cc(Br)ccc2C1=C1Nc2ccccc2C1=O` [Compound 55] the EC50 [1, 8] was > 10 µM.
In the case of `O=C1Nc2c(Br)cccc2C1=C1Nc2ccccc2C1=NO` [Compound 21], the EC50 [1, 8] is reported as > 10 µM.
For `O=C1Nc2cc(Br)c([N+](=O)[O-])cc2C1=C1Nc2ccccc2C1=O` [Compound 54], the EC50 [1, 8] was > 10 µM.
In the case of `Nc1cc2c(cc1Br)NC(=O)C2=C1Nc2ccccc2C1=NO` [Compound 52], the EC50 [1, 8] is reported as > 10 µM.
With `O=C1Nc2cc(N3CCNCC3)c([N+](=O)[O-])cc2C1=C1Nc2ccccc2C1=NO` [Compound 45] the EC50 [1, 8] was > 10 µM.
With `Nc1ccc2c(c1)C(=C1Nc3ccccc3C1=NO)C(=O)N2` [Compound 62] the EC50 [1, 8] was > 10 µM.
With `O=C1Nc2ccc(Br)cc2C1=C1Nc2ccccc2C1=O` [Compound 60] the EC50 [1, 8] was > 10 µM.
In the case of `O=C1Nc2cc(I)ccc2C1=C1Nc2ccccc2C1=NO` [Compound 65], the EC50 [1, 8] is reported as > 10 µM.
In the case of `Nc1cc2c(cc1Br)NC(=O)C2=C1Nc2ccccc2C1=O` [Compound 53], the EC50 [1, 8] is reported as > 10 µM.
With `CC(=O)O/N=C1/C(=C2/C(=O)Nc3cc(Br)ccc32)Nc2ccccc21` [Compound 50] the EC50 [1, 8] was > 10 µM.
For `Cc1cc2c(cc1Br)NC(=O)C2=C1Nc2ccccc2C1=NO` [Compound 5-Me-6-BIO, 6-br-5methylindirubin-3ʹoxime], the EC50 [1, 8] was > 10 µM and the “activity at the screening threshold (in words)” value ([1]; trypomastigotes) was “did not exhibit any activity”.
For `O=C1Nc2c(Br)cccc2C1=C1Nc2ccccc2C1=O` [Compound 20], the EC50 [1, 8] was > 10 µM.
